Test results taken from US20080292736A1, “Bioavailability enhancing activity of carum carvi extracts and fractions thereof” (COUNCIL OF SCIENTIFIC AND INDUSTRIAL RESEARCH, priority 2001, published 2008).

Experiment: Enhancement of bioavailability of drugs given to rats with bioenhancers (plasma drug level by HPLC)
Details: for % Enhancement in bioavailability, BE from Carum carvi: drug with Carum carvi bioenhancer (aqueous or 50% alcoholic extract 30 mg/kg or Fraction No. 1 15 mg/kg), drug dose mg/kg; for % Enhancement in bioavailability, Carum carvi + Zingiber officinale: drug with Carum carvi bioenhancer and Zingiber officinale 35 mg/kg; for % Enhancement in bioavailability, Carum carvi + Zingiber officinale / % Enhancement in bioavailability, Carum carvi + Piperine / % Enhancement in bioavailability, BE from Zingiber officinale / % Enhancement in bioavailability, Piperine as BE: drug dose as in row; for % Enhancement in bioavailability, Carum carvi + Piperine: drug with Carum carvi bioenhancer and piperine 8 mg/kg; for % Enhancement in bioavailability, BE from Zingiber officinale: drug with Zingiber officinale 50% alcoholic extract of fresh ginger 35 mg/kg; for % Enhancement in bioavailability, Piperine as BE: drug with piperine 8 mg/kg; for % Enhancement in bioavailability, Carum carvi (Cc) Frac 1.: nutraceutical with Carum carvi Fraction No. 1 15 mg/kg; for % Enhancement in bioavailability, Carum carvi + Zingiber officinale, Frac 1. (Cc): nutraceutical with Carum carvi Fraction No. 1 and Zingiber officinale; for % Enhancement in bioavailability, Carum carvi + piperine, Frac 1. (Cc): nutraceutical with Carum carvi Fraction No. 1 and piperine; for % Enhancement in bioavailability, Carum carvi (Cc) Extr.: nutraceutical with Carum carvi extract 30 mg/kg; for % Enhancement in bioavailability, Carum carvi + Zingiber officinale, Extr. (Cc): nutraceutical with Carum carvi extract and Zingiber officinale; for % Enhancement in bioavailability, Carum carvi + piperine, Extr. (Cc): nutraceutical with Carum carvi extract and piperine
Method: Bioenhancers of Zingiber officinale, mean 50% alcoholic extract of fresh ginger. The doses remain unchanged whether the bioenhancers are used alone or in combination.
The amount of bioenhancers used are given below: • i. from Carum carvi: extract 30 mg/kg body weight (rats); Fraction No. 1: 15 mg/kg body weight (rats) • ii. piperine 8 mg/kg body weight (rats) • iii. Zingiber officinale: 35 mg/kg body weight (rats) • The drug used was rifampicin (40 mg/kg). The drug alone or in combination with the bioenhancers was administered to rats as given below: • Group 1: control • Group 2: Rifampicin alone • Group 3: bioenhancer alone • Group 4: Rifampicin with Carum carvi bioenhancer
Blood from the control/treated animals at predetermined intervals (0-24 hours) (total 14 timings). Rifampicin was extracted from the blood (plasma) using dichloromethane. […] The mobile phase was phosphate buffer:acetonitrile in a ratio of 40:60, and a flow rate of 1.0 ml/min.

Structure (SMILES)	% Enhancement in bioavailability, BE from Carum carvi	% Enhancement in bioavailability, Carum carvi + Zingiber officinale	% Enhancement in bioavailability, Carum carvi + Piperine	% Enhancement in bioavailability, BE from Zingiber officinale	% Enhancement in bioavailability, Piperine as BE	% Enhancement in bioavailability, Carum carvi (Cc) Frac 1.	% Enhancement in bioavailability, Carum carvi + Zingiber officinale, Frac 1. (Cc)	% Enhancement in bioavailability, Carum carvi + piperine, Frac 1. (Cc)	% Enhancement in bioavailability, Carum carvi (Cc) Extr.	% Enhancement in bioavailability, Carum carvi + Zingiber officinale, Extr. (Cc)	% Enhancement in bioavailability, Carum carvi + piperine, Extr. (Cc)
O=c1[nH]cc(F)c(=O)[nH]1 [5-Fluorouracil]	90%	100%	110%	110%	87%	–	–	–	–	–	–
Cc1nnc2n1-c1ccc(Cl)cc1C(c1ccccc1)=NC2 [Alprazolam]	Nil	80%	70%	76%	65%	–	–	–	–	–	–
CC1(C)S[C@@H]2[C@H](NC(=O)[C@H](N)c3ccc(O)cc3)C(=O)N2[C@H]1C(=O)O [Amoxycillin]	75%	100%	115%	80%	120%	–	–	–	–	–	–
C[C@@H]1[C@H](O)[C@@H](C)/C=C/C=C/C=C/C=C/C=C/C=C/C=C/[C@H](O[C@@H]2O[C@H](C)[C@@H](O)[C@H](N)[C@@H]2O)C[C@@H]2O[C@](O)(C[C@@H](O)C[C@@H](O)[C@H](O)CC[C@@H](O)C[C@@H](O)CC(=O)O[C@H]1C)C[C@H](O)[C@H]2C(=O)O [Amphotericin B]	78%	80%	90%	Nil	nil	–	–	–	–	–	–
CC1=C(/C=C/C(C)=C/C=C/C(C)=C/C=C/C=C(C)/C=C/C=C(C)/C=C/C2=C(C)CCCC2(C)C)C(C)(C)CCC1 [B-carotene]	–	–	–	35%	29%	55%	72%	59%	47%	63%	45%
CN(Cc1cc(Br)cc(Br)c1N)C1CCCCC1 [Bromhexine]	Nil	71%	70%	67%	67%	–	–	–	–	–	–
[Ca+2] [Calcium]	–	–	–	nil	nil	Nil	Nil	Nil	nil	Nil	nil
CO/N=C(\C(=O)N[C@@H]1C(=O)N2C(C(=O)O)=C(CSc3nc(=O)c(O)nn3C)CS[C@H]12)c1csc(N)n1 [Cefetrioxone]	72%	75%	78%	Nil	Nil	–	–	–	–	–	–
C=CC1=C(C(=O)O)N2C(=O)[C@@H](NC(=O)/C(=N\O)c3csc(N)n3)[C@H]2SC1 [Cefidinir]	89%	130%	95%	35%	60%	–	–	–	–	–	–
CN/C(=N/CCSCc1nc[nH]c1C)NC#N [Cimetidine]	72%	100%	84%	98%	nil	–	–	–	–	–	–
Nc1ccc(S(=O)(=O)c2ccc(N)cc2)cc1 [Dapsone]	56%	68%	67%	46%	34%	–	–	–	–	–	–
COc1cccc2c1C(=O)c1c(O)c3c(c(O)c1C2=O)C[C@@](O)(C(=O)CO)C[C@@H]3O[C@H]1C[C@H](N)[C@H](O)[C@H](C)O1 [Dauxorubicin]	Nil	69%	70%	72%	68%	–	–	–	–	–	–
CCc1cc(C(N)=S)ccn1 [Ethionamide]	68%	70%	65%	56%	45%	–	–	–	–	–	–
O=C(CCCN1CCC(O)(c2ccc(Cl)cc2)CC1)c1ccc(F)cc1 [Haloperidol]	95%	85%	90%	Nil	nil	–	–	–	–	–	–
CC(=O)N1CCN(c2ccc(OCC3COC(Cn4ccnc4)(c4ccc(Cl)cc4Cl)O3)cc2)CC1 (stereo not shown) [Ketoconazole]	55%	96%	100%	125%	105%	–	–	–	–	–	–
NCCCC[C@H](N[C@@H](CCc1ccccc1)C(=O)O)C(=O)N1CCC[C@H]1C(=O)O [Lisinopril]	79%	90%	95%	76%	85%	–	–	–	–	–	–
CSCC[C@H](N)C(=O)O [Methionine]	–	–	–	23%	11%	28%	37%	30%	20%	30%	25%
CN(Cc1cnc2nc(N)nc(N)c2n1)c1ccc(C(=O)N[C@@H](CCC(=O)O)C(=O)O)cc1 [Methotrexate]	76%	102%	89%	87%	65%	–	–	–	–	–	–
COc1c(C)c2c(c(O)c1C/C=C(\C)CCC(=O)OCCN1CCOCC1)C(=O)OC2 [Mycophenolate Mofeit]	Nil	nil	nil	Nil	nil	–	–	–	–	–	–
CS(=O)(=O)Nc1ccc([N+](=O)[O-])cc1Oc1ccccc1 [Nimesulide]	100%	145%	140%	144%	132%	–	–	–	–	–	–
[K+] [Potassium]	–	–	–	nil	nil	Nil	Nil	Nil	nil	Nil	nil
CC(C)NCC(O)COc1cccc2ccccc12 (stereo not shown) [Propranolol]	68%	75%	90%	76%	84%	–	–	–	–	–	–
CS(=O)(=O)c1ccc(C2=C(c3ccccc3)C(=O)OC2)cc1 [Rofecoxib]	75%	80%	70%	Nil	nil	–	–	–	–	–	–
CC(C)(C)NCC(O)c1ccc(O)c(CO)c1 (stereo not shown) [Salbutamol]	75%	80%	89%	78%	60%	–	–	–	–	–	–
Cn1c(=O)c2[nH]cnc2n(C)c1=O [Theophylline]	70%	89%	79%	76%	65%	–	–	–	–	–	–
Cc1ncc(C[n+]2csc(CCO)c2C)c(N)n1 [Vit B 1]	–	–	–	31%	17%	42%	55%	26%	37%	43%	21%
